Data published in patent US4470976A, “Poly-cation salt of 4-O-polyhexaose-thio-arylene sulfates” (American Cyanamid Company, priority 1983, dated 1984).
Structures can show the parent of a compound that is named as a salt. Where two headings read alike, the source gives them in different places.

Legend:
[1] = test system: late components of human complement (C3-C9); assay: Test Code 035 (C3-C9 inhibitor), lysis of EAC 142; type: biochemical; settings: serial dilution assay, twofold dilutions; higher well number indicates higher activity
activated human C1 = activated human C1 (Homo sapiens, UniProt P09871); assay: Test Code 026 (C1 inhibitor); type: biochemical; settings: serial dilution assay, twofold dilutions; higher well number indicates higher activity
[2] = test system: serum complement activity; assay: Guinea Pig Intraperitoneal Test (GPIP); type: in vivo; settings: Cavia porcellus, ip, 200 mg/kg i.p.
Description: The concentration of compound inhibiting 50% is reported; and (iv) Guinea Pig Intraperitoneal Test (GPIP): Guinea pigs weighing about 300 g are dosed intraperitoneally (i.p.) with 200 mg/kg of the test compound dissolved in saline and adjusted to pH 7-8. Approximately 0.4 ml blood samples, taken by orbital sinus puncture 2 hours and 6 hours after injections, are collected directly into centifuge tubes; 5 ml blood samples, taken by decapitation 24 hours after injection, are collected directly into beakers. The samples are allowed to clot, centrifuged, and the resultant sera are assayed for complement activity using the capillary complement assay. Percent inhibition is calculated by comparison with simultaneous controls.

human serum complement = settings: both in vitro and in vivo; cited from earlier work
[3] = serum complement 2 hours after injection, read-out: In vivo Activity Guinea Pig % Inhibition Intraperitoneal, 2 hours
[4] = serum complement 6 hours after injection, read-out: In vivo Activity Guinea Pig % Inhibition Intraperitoneal, 6 hours
[5] = serum complement 24 hours after injection, read-out: In vivo Activity Guinea Pig % Inhibition Intraperitoneal, 24 hours

Compound | In vitro Activity C1 026 Wells (activated human C1) | inhibition at 200 mg/kg [2, 3] | inhibition at 200 mg/kg [2, 4] | further results
O=S(=O)([O-])OC[C@H]1O[C@@H](Sc2cc(OS(=O)(=O)[O-])ccc2OS(=O)(=O)[O-])[C@H](OS(=O)(=O)[O-])[C@@H](OS(=O)(=O)[O-])[C@@H]1O[C@H]1O[C@H](COS(=O)(=O)[O-])[C@@H](OS(=O)(=O)[O-])[C@H](OS(=O)(=O)[O-])[C@H]1OS(=O)(=O)[O-].[Na+].[Na+].[Na+].[Na+].[Na+].[Na+].[Na+].[Na+].[Na+] [2,5-Bis(sulfooxy)phenyl 2,3,6-tri-O-sulfo-4-O-(2,3,4,6-tetra-O-sulfo-α-D-glucopyranosyl)-1-thio-β-D-glucopyranoside nonasodium salt] | 9 Wells | 83% | 77% | In vitro Activity C-Late 035 Wells [1]: 2 Wells
COc1ccc(S[C@@H]2O[C@H](COS(=O)(=O)[O-])[C@@H](O[C@H]3O[C@H](COS(=O)(=O)[O-])[C@@H](OS(=O)(=O)[O-])[C@H](OS(=O)(=O)[O-])[C@H]3OS(=O)(=O)[O-])[C@H](OS(=O)(=O)[O-])[C@H]2OS(=O)(=O)[O-])cc1.[Na+].[Na+].[Na+].[Na+].[Na+].[Na+].[Na+] [4-Methoxyphenyl 2,3,6-tri-O-sulfo-4-O-(2,3,4,6-tetra-O-sulfo-α-D-glucopyranosyl)-1-thio-β-D-glucopyranoside heptasodium salt] | 4 Wells |  |  | 
4-(Sulfanilamido)phenyl 2,3,6-tri-O-sulfo-4-O-(2,3,4,6-tetra-O-sulfo-α-D-glucopyranosyl)-1-thio-β-D-glucopyranoside octasodium salt | 5 Wells |  |  | 
Nc1ccc(S[C@@H]2O[C@H](COS(=O)(=O)[O-])[C@@H](O[C@H]3O[C@H](COS(=O)(=O)[O-])[C@@H](OS(=O)(=O)[O-])[C@H](OS(=O)(=O)[O-])[C@H]3OS(=O)(=O)[O-])[C@H](OS(=O)(=O)[O-])[C@H]2OS(=O)(=O)[O-])cc1.[Na+].[Na+].[Na+].[Na+].[Na+].[Na+].[Na+] [4-Aminophenyl 2,3,6-tri-O-sulfo-4-O-(2,3,4,6-tetra-O-sulfo-α-D-glucopyranosyl)-1-thio-β-D-glucopyranoside heptasodium salt] | 9 Wells | 61% | 19% | inhibition at 200 mg/kg [2, 5]: 42%
O=C([O-])c1ccccc1S[C@@H]1O[C@H](COS(=O)(=O)[O-])[C@@H](O[C@H]2O[C@H](COS(=O)(=O)[O-])[C@@H](OS(=O)(=O)[O-])[C@H](OS(=O)(=O)[O-])[C@H]2OS(=O)(=O)[O-])[C@H](OS(=O)(=O)[O-])[C@H]1OS(=O)(=O)[O-].[Na+].[Na+].[Na+].[Na+].[Na+].[Na+].[Na+].[Na+] [2-Carboxyphenyl 2,3,6-tri-O-sulfo-4-O-(2,3,4,6-tetra-O-sulfo-α-D-glucopyranosyl)-1-thio-β-D-glucopyranoside octasodium salt] | 8 Wells |  |  | 
CCOC(=O)C(=O)Nc1ccc(S[C@@H]2O[C@H](COS(=O)(=O)O)[C@@H](O[C@H]3O[C@H](COS(=O)(=O)O)[C@@H](OS(=O)(=O)O)[C@H](OS(=O)(=O)O)[C@H]3OS(=O)(=O)O)[C@H](OS(=O)(=O)O)[C@H]2OS(=O)(=O)O)cc1 [4-(Ethoxyoxalylamino)phenyl 2,3,6-tri-O-sulfo-4-O-(2,3,4,6-tetra-O-sulfo-α-D-glucopyranosyl)-1-thio-β-D-glucopyranoside heptasodium salt] | 8 Wells | 81% | 71% | inhibition at 200 mg/kg [2, 5]: 32%
O=S(=O)(O)OC[C@H]1O[C@@H]([S+]([O-])c2cc(OS(=O)(=O)O)ccc2OS(=O)(=O)O)[C@H](OS(=O)(=O)O)[C@@H](OS(=O)(=O)O)[C@@H]1O[C@H]1O[C@H](COS(=O)(=O)O)[C@@H](OS(=O)(=O)O)[C@H](OS(=O)(=O)O)[C@H]1OS(=O)(=O)O (stereo partly drawn) [2,5-Bis(sulfooxy)phenyl 2,3,6-tri-O-sulfo-4-O-(2,3,4,6-tetra-O-sulfo-α-D-glucopyranosyl)-1-sulfinyl-β-D-glucopyranoside nonasodium salt] | 11 Wells |  |  | In vitro Activity C-Late 035 Wells [1]: 2 Wells
pentosan-polysulfoester |  |  |  | anticomplementary activity, judged by the reduction in total hemolytic complement activity (human serum complement): has an anticomplementary activity on human serum, both in vitro and in vivo
O=S(=O)([O-])OC[C@H]1O[C@@H](Sc2ccc(F)cc2)[C@H](OS(=O)(=O)[O-])[C@@H](OS(=O)(=O)[O-])[C@@H]1O[C@H]1O[C@H](COS(=O)(=O)[O-])[C@@H](OS(=O)(=O)[O-])[C@H](OS(=O)(=O)[O-])[C@H]1OS(=O)(=O)[O-].[Na+].[Na+].[Na+].[Na+].[Na+].[Na+].[Na+] [4-Fluorophenyl 2,3,6-tri-O-sulfo-4-O-(2,3,4,6-tetra-O-sulfo-α-D-glucopyranosyl)-1-thio-β-D-glucopyranoside heptasodium salt] | 8 Wells |  |  | 
CC(=O)Nc1ccc(S[C@@H]2O[C@H](COS(=O)(=O)O)[C@@H](O[C@@H]3O[C@H](COS(=O)(=O)O)[C@@H](OS(=O)(=O)O)[C@H](OS(=O)(=O)O)[C@H]3OS(=O)(=O)O)[C@H](OS(=O)(=O)O)[C@H]2OS(=O)(=O)O)cc1 [4-acetamidophenyl 2,3,6-tri-O-sulfo-4-O-(2,3,4,6-tetra-O-sulfo-β-D-glucopyranosyl)-1-thio-β-D-glucopyranoside heptasodium salt] |  | 86% | 66% | inhibition at 200 mg/kg [2, 5]: 15%
O=S(=O)(O)OC[C@H]1O[C@@H](Sc2cccc(S)c2)[C@H](OS(=O)(=O)O)[C@@H](OS(=O)(=O)O)[C@@H]1O[C@H]1O[C@H](COS(=O)(=O)O)[C@@H](OS(=O)(=O)O)[C@H](OS(=O)(=O)O)[C@H]1OS(=O)(=O)O.[Na+].[Na+].[Na+].[Na+].[Na+].[Na+].[Na+].[Na+] [3-Mercaptophenyl 2,3,6-tri-O-sulfo-4-O-(2,3,4,6-tetra-O-sulfo-α-D-glucopyranosyl)-1-thio-β-D-glucopyranoside octasodium salt] | 11 Wells |  |  | In vitro Activity C-Late 035 Wells [1]: 3 Wells
O=S(=O)([O-])OC[C@H]1O[C@@H](Sc2cccc(C(F)(F)F)c2)[C@H](OS(=O)(=O)[O-])[C@@H](OS(=O)(=O)[O-])[C@@H]1O[C@H]1O[C@H](COS(=O)(=O)[O-])[C@@H](OS(=O)(=O)[O-])[C@H](OS(=O)(=O)[O-])[C@H]1OS(=O)(=O)[O-].[Na+].[Na+].[Na+].[Na+].[Na+].[Na+].[Na+] [3-Trifluoromethylphenyl 2,3,6-tri-O-sulfo-4-O-(2,3,4,6-tetra-O-sulfo-α-D-glucopyranosyl)-1-thio-β-D-glucopyranoside heptasodium salt] | 5 Wells |  |  | 
O=S(=O)([O-])OC[C@H]1O[C@@H](Sc2ccc(OS(=O)(=O)[O-])cc2)[C@H](OS(=O)(=O)[O-])[C@@H](OS(=O)(=O)[O-])[C@@H]1O[C@H]1O[C@H](COS(=O)(=O)[O-])[C@@H](OS(=O)(=O)[O-])[C@H](OS(=O)(=O)[O-])[C@H]1OS(=O)(=O)[O-].[Na+].[Na+].[Na+].[Na+].[Na+].[Na+].[Na+].[Na+] [4-Sulfooxyphenyl 2,3,6-tri-O-sulfo-4-O-(2,3,4,6-tetra-O-sulfo-α-D-glucopyranosyl)-1-thio-β-D-glucopyranoside octasodium salt] | 8 Wells |  |  | 
